These results are taken from patent US8841291B2, “Selective hydroxamic acid based MMP-12 and MMP-13 inhibitors” (Novartis AG, priority 2008, dated 2014).

Test [1] addresses Collagenase-3 (MMP-13) (Homo sapiens, UniProt P45452). The test can be described thus: Collagenase-3 (MMP-13) inhibitory activity, fluorogenic peptide substrate assay. It counts as biochemical.
Experimental: (§1) Stock solutions of inhibitors (0.03 mM-3 mM) are also prepared in DMSO. The inhibitors are diluted into the assay solutions, and the controls use an equal volume of DMSO so that the final DMSO concentration from the inhibitor and substrate dilutions in all assays is 1.0%. Assays are performed in an assay buffer (100 mM sodium chloride, 10 μM ZnCl. Sub 2, 10 mM CaCl2, 100 mM Tris-Cl pH7.5, 0.05% Brij-35), containing 1.0% DMSO from the substrate and inhibitor additions. The substrate concentration used in the assays is 5 μM. The assays are carried out at 20-25° C. […] The reaction mixtures are added in duplicate into appropriate wells of a 384-well assay plate. The reaction mixtures are preincubated with the inhibitors for 60 minutes The reactions are started by the addition of MMP substrate, and the fluorescence intensity changes are measured after 60 minutes The apparent enzyme activity in the presence of an inhibitor is then compared with that in the absence of any inhibitor to determine the inhibition effect of the inhibitor.
Collagenase-3 (MMP-13) inhibitory activity is determined as described above. Recombinant pro-collagenase-3 is activated with 1 mM APMA, and stored in the assay buffer after extensive dialysis in the assay buffer.
Test [2] addresses T1, Gelatinase (MMP-2) (Homo sapiens, UniProt P08253).
T1 sequence (P08253 110-660): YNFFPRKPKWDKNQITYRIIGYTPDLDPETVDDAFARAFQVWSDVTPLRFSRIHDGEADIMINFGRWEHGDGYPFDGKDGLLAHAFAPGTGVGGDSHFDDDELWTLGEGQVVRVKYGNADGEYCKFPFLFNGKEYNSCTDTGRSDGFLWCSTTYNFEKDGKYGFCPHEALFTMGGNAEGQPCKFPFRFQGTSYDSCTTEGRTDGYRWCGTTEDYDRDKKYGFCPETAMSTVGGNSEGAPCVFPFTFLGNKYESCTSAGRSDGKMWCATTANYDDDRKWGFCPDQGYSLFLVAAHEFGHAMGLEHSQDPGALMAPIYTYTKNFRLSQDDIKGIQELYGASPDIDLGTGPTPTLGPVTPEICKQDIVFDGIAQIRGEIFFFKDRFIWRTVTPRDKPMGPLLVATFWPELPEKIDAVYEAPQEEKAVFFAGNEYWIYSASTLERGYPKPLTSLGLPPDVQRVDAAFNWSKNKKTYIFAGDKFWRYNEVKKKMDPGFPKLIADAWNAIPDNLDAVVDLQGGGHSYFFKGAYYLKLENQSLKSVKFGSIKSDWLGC
The test can be described thus: Gelatinase (MMP-2) inhibitory activity, fluorogenic peptide substrate assay. The test is classed as biochemical.
Experimental: as §1

[3] abbreviates: recombinant pro-collagenase-3 activated with 1 mM APMA, read-out: MMP13 IC50.
Setting [4] is: substrate 5 μM, 60 min preincubation, 20-25° C., read-out: MMP2 IC50.

pIC50: −log10 of the molar value. Where two headings read alike, the source gives them in different places. Where only a bound is given, the exact number is not on record here.

Regarding `O=C(NO)[C@H]1CC=CCN1S(=O)(=O)c1ccc2ccccc2c1` [Example 26, (R)-1-(Naphthalene-2-sulfonyl)-1,2,3,6-tetrahydro-pyridine-2-carboxylic acid hydroxyamide], the pIC50 – broadly, the IC50 on a negative log10 scale, so that one unit is a factor of ten – in test [1] (setting [3]) was 8.77; in test [2] (setting [4]) it was 7.73.

Turning to `COc1ccc(S(=O)(=O)N2CC=CC[C@@H]2C(=O)NO)cc1OC` [Example 97, (R)-1-(3,4-Dimethoxy-benzenesulfonyl)-1,2,3,6-tetrahydro-pyridine-2-carboxylic acid hydroxyamide], in test [1] (setting [3]), the negative logarithm of the IC50 (pIC50) is 4.99.

As to `C=CCCN([C@H](CC=C)C(=O)NO)S(=O)(=O)c1ccc2ccccc2c1` [Example 4, (R)-2-[But-3-enyl-(naphthalene-2-sulfonyl)-amino]-pent-4-enoic acid hydroxyamide], the pIC50 in test [1] (setting [3]) was 9.15; in test [2] (setting [4]), 7.29.

As to `CC(C)CCN([C@@H](C(=O)NO)C(C)C)S(=O)(=O)c1nc2ccccc2s1` [Example 98, (R)-2-[(Benzothiazole-2-sulfonyl)-(3-methyl-butyl)-amino]-N-hydroxy-3-methyl-butyramide], the figures for the pIC50 in test [1] (setting [3]) and in test [2] (setting [4]) were 7.20 and 6.15, respectively.

In the case of `CC(C)CCN(C1(C(=O)NO)CC1)S(=O)(=O)c1ccc2ccccc2c1` [Example 73, 1-[(3-Methyl-butyl)-(naphthalene-2-sulfonyl)-amino]-cyclopropanecarboxylic acid hydroxyamide], the pIC50 in test [1] (setting [3]) was 7.46; in test [2] (setting [4]), 6.40.

Regarding `COc1cccc(OCCN([C@@H](C(=O)NO)C(C)C)S(=O)(=O)c2ccc3ccccc3c2)c1` [Example 46, (R)—N-Hydroxy-2-[[2-(3-methoxy-phenoxy)-ethyl]-(naphthalene-2-sulfonyl)-amino]-3-methyl-butyramide], the results for the pIC50 in test [1] (setting [3]) and in test [2] (setting [4]) were 7.86 and 6.18, respectively.

On to `O=C(NO)[C@H]1CCCCCN1S(=O)(=O)c1ccc2ccccc2c1` [Example 33, (R)-1-(Naphthalene-2-sulfonyl)-azepane-2-carboxylic acid hydroxyamide], for which the pIC50 was 8.06 in test [1] (setting [3]) and 7.13 in test [2] (setting [4]).

Consider `CCOc1ccc2ccc(S(=O)(=O)N(Cc3cccnc3)[C@@H](C(=O)NO)C(C)C)cc2c1` [Example 68, 2-[(7-Ethoxy-naphthalene-2-sulfonyl)-pyridin-3-ylmethyl-amino]-N-hydroxy-3-methyl-butyramide], for which the values for the negative-log IC50 (pIC50) in test [1] (setting [3]) and in test [2] (setting [4]) were 7.54 and 6.01, respectively.

With `CC1=CC[C@H](C(=O)NO)N(S(=O)(=O)c2ccc3ccccc3c2)C1` [Example 60, (R)-5-Methyl-1-(naphthalene-2-sulfonyl)-1,2,3,6-tetrahydro-pyridine-2-carboxylic acid hydroxyamide], the negative logarithm of the IC50 (pIC50) in test [1] (setting [3]) is 9.05; in test [2] (setting [4]), 7.90.

On to `CC(C)CCOc1ccc2ccc(S(=O)(=O)N(CCC(C)C)[C@@H](C(=O)NO)C(C)C)cc2c1` [Example 86, (R)—N-Hydroxy-3-methyl-2-[[7-(3-methyl-butoxy)-naphthalene-2-sulfonyl]-(3-methyl-butyl)-amino]-butyramide], for which the pIC50 was 5.49 in test [1] (setting [3]) and below 5.00 in test [2] (setting [4]).

Take `CCOc1ccc2ccc(S(=O)(=O)N(Cc3ccccc3)[C@@H](C(=O)NO)C(C)C)cc2c1` [Example 27, 2-[Benzyl-(7-ethoxy-naphthalene-2-sulfonyl)-amino]-N-hydroxy-3-methyl-butyramide]: the pIC50 is 6.27 in test [1] (setting [3]) and 5.36 in test [2] (setting [4]).

For the compound `COc1c(S(=O)(=O)N2CC=CC[C@@H]2C(=O)NO)ccc2ccccc12` [Example 78, (R)-1-(1-Methoxy-naphthalene-2-sulfonyl)-1,2,3,6-tetrahydro-pyridine-2-carboxylic acid hydroxyamide], the pIC50 in test [1] (setting [3]) is 8.68; in test [2] (setting [4]) it was 7.70.

For the compound `C#CC[C@H](C(=O)NO)N(CC=C)S(=O)(=O)c1ccc2ccccc2c1` [Example 8, (R)-2-[Allyl-(naphthalene-2-sulfonyl)-amino]-pent-4-ynoic acid hydroxyamide], the pIC50 in test [1] (setting [3]) was 8.46; in test [2] (setting [4]), 6.90.

As for `C=CC1=CCN(S(=O)(=O)c2ccc3ccccc3c2)[C@@H](C(=O)NO)C1` [Example 44, (R)-1-(Naphthalene-2-sulfonyl)-4-vinyl-1,2,3,6-tetrahydro-pyridine-2-carboxylic acid hydroxyamide], the negative-log IC50 (pIC50) was 8.74 in test [1] (setting [3]) and 7.52 in test [2] (setting [4]).

Regarding `CC1(C)SCCN(S(=O)(=O)c2ccc3ccccc3c2)[C@H]1C(=O)NO` [Example 90], the negative logarithm of the IC50 (pIC50) in test [1] (setting [3]) is above 9.52; in test [2] (setting [4]), 7.29.

For the compound `COc1c(S(=O)(=O)N(CCC(C)C)[C@@H](C(=O)NO)C(C)C)ccc2ccccc12` [Example 79, (R)—N-Hydroxy-2-[(1-methoxy-naphthalene-2-sulfonyl)-(3-methyl-butyl)-amino]-3-methyl-butyramide], the pIC50 in test [1] (setting [3]) was 8.96; in test [2] (setting [4]), 7.29.

Turning to `CC(C)CCNc1ccc2ccc(S(=O)(=O)N(CCC(C)C)[C@@H](C(=O)NO)C(C)C)cc2c1` [Example 57, N-Hydroxy-3-methyl-2-{(3-methyl-butyl)-[7-(3-methyl-butylamino)-naphthalene-2-sulfonyl]-amino}-butyramide], the negative-log IC50 (pIC50) in test [1] (setting [3]) was 5.80; in test [2] (setting [4]) it was below 5.52.

As for `O=C(NO)[C@H]1CC=CCN1S(=O)(=O)c1ccc2ncccc2c1` [Example 63, (R)-1-(Quinoline-6-sulfonyl)-1,2,3,6-tetrahydro-pyridine-2-carboxylic acid hydroxyamide], the results for the negative logarithm of the IC50 (pIC50) in test [1] (setting [3]) and in test [2] (setting [4]) were 7.98 and 7.26, respectively.

Regarding `CC(C)C[C@@H](NS(=O)(=O)c1ccc2ccccc2c1)C(=O)NO` [Example 5, 4-Methyl-2-(naphthalene-2-sulfonylamino)-pentanoic acid hydroxyamide], the pIC50 is 7.39 in test [1] (setting [3]) and 7.24 in test [2] (setting [4]).

Take `CC(C)[C@H](C(=O)NO)N(CCOc1ccc(F)cc1)S(=O)(=O)c1ccc2ccccc2c1` [Example 41, N-(2-(4-fluorophenoxy)ethyl)-N-(naphthalene-2-sulfonyl)-D-valine hydroxamic acid]: the negative-log IC50 (pIC50) in test [1] (setting [3]) was 7.41; in test [2] (setting [4]) it was 5.95.

For `CC(C)CCN([C@@H](C(=O)NO)C(C)C)S(=O)(=O)c1ccc2ccccc2c1Cl` [Example 80, 2-[(1-Chloro-naphthalene-2-sulfonyl)-(3-methyl-butyl)-amino]-N-hydroxy-3-methyl-butyramide], the negative-log IC50 (pIC50) is around 6.95 in test [1] (read-out: IC50 (Collagenase-3 (MMP-13) inhibitory activity)), 6.93 in test [1] (setting [3]), 7.26 in test [2] (read-out: IC50 (Gelatinase (MMP-2) inhibitory activity)) and 6.11 in test [2] (setting [4]).

Turning to `O=C(NO)C(NS(=O)(=O)c1ccc2ccccc2c1)C1CCOCC1` (stereo not shown) [Example 11, N-Hydroxy-2-(naphthalene-2-sulfonylamino)-2-(tetrahydro-pyran-4-yl)-acetamide], the pIC50 in test [1] (setting [3]) was 7.29; in test [2] (setting [4]) it was 7.03.

In the case of `Cc1ccc(C)c(OCCN([C@@H](C(=O)NO)C(C)C)S(=O)(=O)c2ccc3ccccc3c2)c1C` [Example 75, N-(2-(2,3,6-trimethylphenoxy)ethyl)-N-(naphthalene-2-sulfonyl)-D-valine hydroxamic acid], the pIC50 in test [1] (setting [3]) was 7.17; in test [2] (setting [4]), 5.51.

For `CC(C)(NS(=O)(=O)c1ccc2ccccc2c1)C(=O)NO` [Example 12, N-Hydroxy-2-methyl-2-(naphthalene-2-sulfonylamino)-propionamide], the negative-log IC50 (pIC50) in test [1] (setting [3]) was 6.12; in test [2] (setting [4]), 6.10.

As for `CC(C)(C)[C@@H](NS(=O)(=O)c1ccc2ccccc2c1)C(=O)NO` [Example 93, (R)—N-Hydroxy-3,3-dimethyl-2-(naphthalene-2-sulfonylamino)-butyramide], the negative logarithm of the IC50 (pIC50) is 7.05 in test [1] (setting [3]) and 6.22 in test [2] (setting [4]).

With `CC(C)CCN([C@@H](C(=O)NO)C(C)C)S(=O)(=O)c1ccc2cc(N)ccc2c1` [Example 51, 2-[(6-Amino-naphthalene-2-sulfonyl)-(3-methyl-butyl)-amino]-N-hydroxy-3-methyl-butyramide], the pIC50 in test [1] (setting [3]) is 7.05; in test [2] (setting [4]) it was 5.95.

In the case of `C=CC[C@@H](NS(=O)(=O)c1ccc2ccccc2c1)C(=O)NO` [Example 3, (R)-2-(Naphthalene-2-sulfonylamino)-pent-4-enoic acid hydroxyamide], the pIC50 in test [1] (setting [3]) was 7.45; in test [2] (setting [4]), 7.65.

In the case of `CN1CCOc2cc(S(=O)(=O)N3CC=CC[C@@H]3C(=O)NO)ccc21` [Example 94, (R)-1-(4-Methyl-3,4-dihydro-2H-benzo[1,4]oxazine-7-sulfonyl)-1,2,3,6-tetrahydro-pyridine-2-carboxylic acid hydroxyamide], the negative logarithm of the IC50 (pIC50) in test [1] (setting [3]) was 7.43.

`O=C(NO)[C@H]1CC=CCN1S(=O)(=O)c1ccc(N2CCOCC2)nc1` [Example 96, (R)-1-(6-Morpholin-4-yl-pyridine-3-sulfonyl)-1,2,3,6-tetrahydro-pyridine-2-carboxylic acid hydroxyamide]: the negative logarithm of the IC50 (pIC50) in test [1] (setting [3]) was 6.49.

For the compound “(R)-1-(2,3,4a,8a-Tetrahydro-benzo[1,4]dioxine-6-sulfonyl)-1,2,3,6-tetrahydro-pyridine-2-carboxylic acid hydroxyamide [Example 95]”, the pIC50 in test [1] (setting [3]) was 8.59.
